Measured values reported in the supplement of paper PMC10307832.

Compound: CCN1CCN(c2ccc(Nc3cc(N(C)C(=O)Nc4c(Cl)c(OC)cc(OC)c4Cl)ncn3)cc2)CC1 [BGJ398] + COc1cc2c(Oc3ccc(NC(=O)C4(C(=O)Nc5ccc(F)cc5)CC4)cc3F)ccnc2cc1OCCCN1CCOCC1 [Foretinib] (partner 0.25 µM)
Test: relative viability (nuclei count vs DMSO), 5 days (fraction); higher = more cells survive
Conditions: first compound 0.01 µM
In short: (§1)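 Relative viability is defined as nuclei in treated wells over nuclei in vehicle wells. Duplicate plates were run and medians reported. Lung cancer cell lines in 1536-well plates were dosed by pin tool one day after seeding, with one drug or with a fixed anchor-drug dose plus five library-drug doses (not always all listed) in √10 steps, and nuclei were counted after 5 days.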

Cell Line	relative viability
NCI-H441	0.997
NCI-H1734	0.862
NCI-H460	0.999
NCI-H2347	1.02
SK-LU-1	0.716
NCI-H1395	0.877
201T	1.18
NCI-H1915	1.05
HCC-827	0.926
LXF-289	0.901
NCI-H23	1.01
NCI-H647	1.09
CAL-12T	1.04
NCI-H1651	0.753
EPLC-272H	0.794
NCI-H2228	0.776
NCI-H1355	0.925
NCI-H3122	1.01
NCI-H1437	1.42
NCI-H1755	0.88
NCI-H2023	0.847
HCC-15	0.978
NCI-H1793	0.725
PC-14	0.905
EKVX	0.763
LC-2-ad	1.05
NCI-H1944	0.946
NCI-H1975	0.989
RERF-LC-KJ	0.912
PC-3 [JPC-3]	1.15

Same assay, conditions: first compound 0.03162 µM

Cell Line	relative viability
NCI-H441	0.902
NCI-H1734	0.879
NCI-H460	0.994
NCI-H2347	1.12
SK-LU-1	0.833
NCI-H1395	0.955
201T	1.1
NCI-H1915	1.06
LXF-289	0.901
NCI-H23	1.08
NCI-H647	1.12
CAL-12T	1.13
NCI-H1651	0.781
EPLC-272H	0.534
NCI-H2228	0.893
NCI-H1355	0.98
NCI-H3122	0.973
NCI-H1437	1.29
NCI-H1755	0.985
NCI-H2023	0.997
HCC-15	1.1
NCI-H1793	0.579
PC-14	0.618
EKVX	0.409
LC-2-ad	0.839
NCI-H1944	0.889
NCI-H1975	1.12
RERF-LC-KJ	0.899

Same assay, conditions: first compound 0.1 µM

Cell Line	relative viability
NCI-H441	0.893
NCI-H1734	0.893
NCI-H460	1.08
NCI-H2347	0.838
SK-LU-1	0.778
NCI-H1395	0.819
201T	1.05
NCI-H1915	1.14
HCC-827	1.02
LXF-289	0.881
NCI-H23	1.17
NCI-H647	1.12
CAL-12T	1.04
NCI-H1651	0.94
EPLC-272H	0.84
NCI-H2228	0.848
NCI-H1355	1.03
NCI-H3122	0.963
NCI-H1437	1.27
NCI-H1755	0.919
NCI-H2023	0.79
HCC-15	1.04
NCI-H1793	0.557
PC-14	1.02
EKVX	0.805
LC-2-ad	1.02
NCI-H1944	0.941
NCI-H1975	1.06
RERF-LC-KJ	0.961
PC-3 [JPC-3]	1.06

Same assay, conditions: first compound 0.3162 µM

Cell Line	relative viability
NCI-H441	0.998
NCI-H1734	0.785
NCI-H460	1.06
NCI-H2347	0.717
SK-LU-1	0.791
NCI-H1395	0.756
201T	0.958
NCI-H1915	1.1
HCC-827	1
LXF-289	0.873
NCI-H23	1.06
NCI-H647	1.39
CAL-12T	1.11
NCI-H1651	0.73
EPLC-272H	0.724
NCI-H2228	0.822
NCI-H1355	0.951
NCI-H3122	0.89
NCI-H1437	1.25
NCI-H1755	0.929
NCI-H2023	0.805
HCC-15	1.13
NCI-H1793	0.725
PC-14	0.802
EKVX	0.643
LC-2-ad	0.963
NCI-H1944	0.831
NCI-H1975	0.879
RERF-LC-KJ	0.911
PC-3 [JPC-3]	1

Same assay, conditions: first compound 1 µM

Cell Line	relative viability
NCI-H441	1.11
NCI-H1734	0.827
NCI-H460	1.04
NCI-H2347	0.741
SK-LU-1	0.869
NCI-H1395	0.614
201T	1.02
NCI-H1915	1.09
HCC-827	1.13
LXF-289	0.871
NCI-H23	0.881
NCI-H647	1.27
CAL-12T	1.12
NCI-H1651	0.677
EPLC-272H	0.74
NCI-H2228	0.826
NCI-H1355	0.898
NCI-H3122	0.971
NCI-H1437	1.28
NCI-H1755	0.955
NCI-H2023	0.905
HCC-15	1.07
NCI-H1793	0.666
PC-14	1.03
EKVX	0.686
LC-2-ad	0.99
NCI-H1944	0.826
NCI-H1975	0.97
RERF-LC-KJ	0.851
PC-3 [JPC-3]	1.02

Compound: CCN1CCN(c2ccc(Nc3cc(N(C)C(=O)Nc4c(Cl)c(OC)cc(OC)c4Cl)ncn3)cc2)CC1 [BGJ398] + Nc1nc2[nH]cc(CCc3ccc(C(=O)N[C@@H](CCC(=O)O)C(=O)O)cc3)c2c(=O)[nH]1 [Pemetrexed] (partner 0.2 µM)
Test: as above
Conditions: first compound 0.01 µM
In short: as §1

Cell Line	relative viability
NCI-H1734	0.405
NCI-H460	0.0621
NCI-H2347	0.4
SK-LU-1	0.866
NCI-H1395	0.827
201T	0.343
NCI-H1915	0.511
HCC-827	0.254
LXF-289	0.923
NCI-H23	0.735
NCI-H647	0.179
CAL-12T	1.17
NCI-H1651	0.544
EPLC-272H	0.32
NCI-H2228	0.312
NCI-H1355	0.981
NCI-H3122	0.206
NCI-H1437	0.322
NCI-H1755	0.438
NCI-H2023	0.279
HCC-15	0.262
NCI-H1793	0.942
PC-14	0.13
EKVX	0.385
LC-2-ad	0.292
NCI-H1944	0.652
NCI-H1975	0.274
RERF-LC-KJ	0.436
PC-3 [JPC-3]	1.16

Same assay, conditions: first compound 0.03162 µM

Cell Line	relative viability
NCI-H441	0.234
NCI-H1734	0.403
NCI-H460	0.0761
NCI-H2347	0.462
SK-LU-1	1
NCI-H1395	0.82
201T	0.339
NCI-H1915	0.524
LXF-289	0.849
NCI-H23	0.652
NCI-H647	0.16
CAL-12T	1.21
NCI-H1651	0.542
EPLC-272H	0.447
NCI-H2228	0.367
NCI-H1355	1.01
NCI-H3122	0.193
NCI-H1437	0.309
NCI-H1755	0.44
NCI-H2023	0.227
HCC-15	0.232
NCI-H1793	0.526
PC-14	0.132
EKVX	0.403
LC-2-ad	0.285
NCI-H1944	0.635
NCI-H1975	0.309
RERF-LC-KJ	0.431

Same assay, conditions: first compound 0.1 µM

Cell Line	relative viability
NCI-H441	0.243
NCI-H1734	0.405
NCI-H460	0.0595
NCI-H2347	0.427
SK-LU-1	1.05
NCI-H1395	0.77
201T	0.338
NCI-H1915	0.571
HCC-827	0.277
LXF-289	0.88
NCI-H23	0.528
NCI-H647	0.19
CAL-12T	1.1
NCI-H1651	0.615
EPLC-272H	0.317
NCI-H2228	0.377
NCI-H1355	1.06
NCI-H3122	0.192
NCI-H1437	0.296
NCI-H1755	0.428
NCI-H2023	0.248
HCC-15	0.219
NCI-H1793	0.809
PC-14	0.131
EKVX	0.452
LC-2-ad	0.245
NCI-H1944	0.502
NCI-H1975	0.301
RERF-LC-KJ	0.37
PC-3 [JPC-3]	0.766

Same assay, conditions: first compound 0.3162 µM

Cell Line	relative viability
NCI-H441	0.251
NCI-H1734	0.378
NCI-H460	0.0608
NCI-H2347	0.43
SK-LU-1	0.936
NCI-H1395	0.559
201T	0.329
NCI-H1915	0.458
HCC-827	0.184
LXF-289	0.801
NCI-H23	0.715
NCI-H647	0.201
CAL-12T	1.34
NCI-H1651	0.588
EPLC-272H	0.289
NCI-H2228	0.342
NCI-H1355	1.03
NCI-H3122	0.188
NCI-H1437	0.321
NCI-H1755	0.443
NCI-H2023	0.252
HCC-15	0.223
NCI-H1793	0.569
EKVX	0.38
LC-2-ad	0.271
NCI-H1944	0.495
NCI-H1975	0.291
RERF-LC-KJ	0.49

Same assay, conditions: first compound 1 µM

Cell Line	relative viability
NCI-H441	0.288
NCI-H1734	0.415
NCI-H460	0.0687
NCI-H2347	0.375
SK-LU-1	1.07
NCI-H1395	0.524
201T	0.334
NCI-H1915	0.521
HCC-827	0.272
LXF-289	0.923
NCI-H23	0.541
NCI-H647	0.185
CAL-12T	1.01
NCI-H1651	0.423
EPLC-272H	0.418
NCI-H2228	0.299
NCI-H1355	0.945
NCI-H3122	0.202
NCI-H1437	0.298
NCI-H1755	0.427
NCI-H2023	0.242
HCC-15	0.221
NCI-H1793	0.454
PC-14	0.151
EKVX	0.378
LC-2-ad	0.31
NCI-H1944	0.606
NCI-H1975	0.298
RERF-LC-KJ	0.408
PC-3 [JPC-3]	0.992

Compound: C1=CC2=NC=CN=C2C=C1/C=C/3\C(=O)NC(=O)S3 + CC1(C)CCC(c2ccc(Cl)cc2)=C(CN2CCN(c3ccc(C(=O)NS(=O)(=O)c4ccc(N[C@H](CCN5CCOCC5)CSc5ccccc5)c(S(=O)(=O)C(F)(F)F)c4)cc3)CC2)C1 [Navitoclax] (partner 0.5 µM)
Test: as above
Conditions: first compound 0.02 µM
In short: as §1

Cell Line	relative viability
NCI-H441	0.523
